Where a SMILES comes first, the peptide text is derived from it. Bridges are numbered along the chain shown (N, C = ends). [ ]: non-standard residue; d: D form. The star is where a group is joined. hPhe(3-Cl-4-CF3) = N[C@@H](CCc1ccc(C(F)(F)F)c(Cl)c1)C(=O)O; NPrPhe(4-CF3) = CCCN[C@@H](Cc1ccc(C(F)(F)F)cc1)C(=O)O; NMeChg = CN[C@H](C(=O)O)C1CCCCC1; NMeD = CN[C@@H](CC(=O)O)C(=O)O; NMeL = CN[C@@H](CC(C)C)C(=O)O; Morpholide = C1CN(*)CCO1; Ac4c = NC1(C(=O)O)CCC1; Sar = CNCC(=O)O
Assays:
[1] = molecular target: GDP-bound NRAS wild-type protein (Homo sapiens, UniProt P01111); assay: Binding to NRAS by surface plasmon resonance (SPR), Single Cycle Kinetics; settings: SPR; for NRAS/KRAS (ratio of KD value with respect to NRAS to KD value with respect to KRAS) / NRAS/KRAS (ratio of KD value for NRAS to KD value for KRAS): GDP-bound NRAS wild-type vs GDP-bound KRAS wild-type
[2] = molecular target: GDP-bound HRAS wild-type protein (Homo sapiens, UniProt P01112); assay: Binding to HRAS by surface plasmon resonance (SPR), Single Cycle Kinetics; settings: SPR; for HRAS/KRAS (ratio of KD value with respect to HRAS to KD value with respect to KRAS) / HRAS/KRAS (ratio of KD value for HRAS to KD value for KRAS): GDP-bound HRAS wild-type vs GDP-bound KRAS wild-type
[3] = KD ratio NRAS/KRAS, GDP-bound wild-type proteins
[4] = KD ratio HRAS/KRAS, GDP-bound wild-type proteins

Sequence of GDP-bound NRAS wild-type protein (P01111 whole entry): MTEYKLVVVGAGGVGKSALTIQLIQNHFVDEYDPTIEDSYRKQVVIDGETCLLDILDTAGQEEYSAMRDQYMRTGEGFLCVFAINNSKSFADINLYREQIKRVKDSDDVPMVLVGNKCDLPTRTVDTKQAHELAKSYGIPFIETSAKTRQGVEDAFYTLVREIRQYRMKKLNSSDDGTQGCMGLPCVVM
Sequence of GDP-bound HRAS wild-type protein (P01112 whole entry): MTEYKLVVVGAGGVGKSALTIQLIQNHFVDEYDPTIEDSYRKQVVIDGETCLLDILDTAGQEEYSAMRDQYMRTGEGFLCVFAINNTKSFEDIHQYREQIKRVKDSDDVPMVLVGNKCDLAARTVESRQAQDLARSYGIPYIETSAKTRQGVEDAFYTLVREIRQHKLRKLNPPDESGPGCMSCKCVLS

CC[C@H](C)[C@@H]1NC(=O)[C@H](CC(C)C)N(C)C(=O)C[C@@H](C(=O)N2CCOCC2)N(C)C(=O)[C@H](C2CCCC2)N(C)C(=O)C2(CCCC2)NC(=O)[C@@H]2CCCN2C(=O)[C@H](CCc2ccc(C(F)(F)F)c(Cl)c2)NC(=O)CN(C)C(=O)[C@H](Cc2ccc(C(F)(F)F)cc2)N2CCCC[C@@H](C2=O)N(C)C(=O)CN(C)C1=O [PP0318]
NRAS/KRAS (ratio of KD for GDP-bound NRAS wild-type to KD for KRAS) ([1]; KD ratio NRAS/KRAS): B (a compound having 3 or more and less than 10 is denoted as B) | HRAS/KRAS (ratio of KD for GDP-bound HRAS wild-type to KD for KRAS) ([2]; KD ratio HRAS/KRAS): B (a compound having 3 or more and less than 10 is denoted as B)

CC[C@H](C)[C@@H]1NC(=O)[C@H](CC(C)C)N(C)C(=O)C[C@@H](C(=O)N2CCOCC2)N(C)C(=O)[C@H](C2CCCC2)N(C)C(=O)C2(CCC2)NC(=O)[C@@H]2C[C@@H](OCC3CCCC3)CN2C(=O)[C@H](CCc2cc(F)c(C(F)(F)F)c(F)c2)NC(=O)CN(C)C(=O)[C@H](Cc2ccc(C(F)(F)F)cc2)N2CCCC[C@@H](C2=O)N(C)C(=O)CN(C)C1=O [PP1001]
NRAS/KRAS (ratio of KD value with respect to NRAS to KD value with respect to KRAS) ([1]; KD ratio): B (a compound having 3 or more and less than 10 is denoted as B) | HRAS/KRAS (ratio of KD value with respect to HRAS to KD value with respect to KRAS) ([2]; KD ratio): B (a compound having 3 or more and less than 10 is denoted as B)

CCCN1C(=O)CN(C)C(=O)CN(C)C(=O)[C@H]([C@@H](C)CC)NC(=O)[C@H](CC(C)C)N(C)C(=O)C[C@@H](C(=O)N2CCOCC2)N(C)C(=O)[C@H](C2CCCCC2)N(C)C(=O)C2(CCC2)NC(=O)[C@@H]2CCCN2C(=O)[C@H](CCc2ccc(C(F)(F)F)c(Cl)c2)NC(=O)CN(C)C(=O)[C@@H]1Cc1ccc(C(F)(F)F)cc1 [PP1928] ([NMeL]I[Sar][Sar][NPrPhe(4-CF3)][Sar][hPhe(3-Cl-4-CF3)]P[Ac4c][NMeChg][NMeD]-Morpholide; lactam N-11)
NRAS/KRAS (ratio of KD value for NRAS to KD value for KRAS) ([1]; KD ratio): B (a compound having 3 or more and less than 10 is denoted as B) | HRAS/KRAS (ratio of KD value for HRAS to KD value for KRAS) ([2]; KD ratio): B (a compound having 3 or more and less than 10 is denoted as B)

CC[C@H](C)[C@@H]1NC(=O)[C@H](CC)N(C)C(=O)C[C@@H](C(=O)N(C)C)N(C)C(=O)[C@H](C2CCCC2)N(C)C(=O)C2(CCC2)NC(=O)[C@@H]2C[C@H](N3CCC(F)(F)CC3)CN2C(=O)[C@H](CCc2cc(F)c(C(F)(F)F)c(F)c2)NC(=O)CN(C)C(=O)[C@H](Cc2ccc(C(F)(F)F)cc2)N2CCCCC[C@@H](C2=O)N(C)C(=O)CN(C)C1=O [PP0731]
NRAS/KRAS (ratio of KD value with respect to GDP-bound NRAS wild-type protein to KD value with respect to KRAS) ([1]; KD ratio NRAS/KRAS): B (a compound having 3 or more and less than 10 is denoted as B) | HRAS/KRAS (ratio of KD value with respect to GDP-bound HRAS wild-type protein to KD value with respect to KRAS) ([2]; KD ratio HRAS/KRAS): B (a compound having 3 or more and less than 10 is denoted as B)

CCO[C@@H]1C[C@H]2C(=O)NC3(CCC3)C(=O)N(C)[C@@H](C(CC)CC)C(=O)N(C)[C@H](C(=O)N3CCCC3)CC(=O)N(C)[C@H]3CCCC/C=C/c4ccc(cc4)C[C@@H](C(=O)N(C)CC(=O)N[C@@H](CCc4ccc(Cl)c(Cl)c4)C(=O)N2C1)N1CC/C=C\C[C@@H](C1=O)N(C)C(=O)CN(C)C(=O)[C@H]([C@@H](C)CC)NC3=O [PP3047, (1S,7S,11R,13S,19S,22S,26S,29S,35S,37Z,47E)-7-[2-(3,4-dichlorophenyl)ethyl]-11-ethoxy-19-(1-ethylpropyl)-3,18,21,25,31,34-hexamethyl-29-[(1S)-1-methylpropyl]-22-(pyrrolidine-1-carbonyl)spiro[3,6,9,15,18,21,25,28,31,34,41-undecazapentacyclo[24.15.11.2^43,46.1^35,41.0^9,13]pentapentaconta-37,43(54),44,46(53),47-pentaene-16,1′-cyclobutane]-2,5,8,14,17,20,24,27,30,33,55-undecone]
NRAS/KRAS (ratio of KD value with respect to GDP-bound NRAS wild-type protein to KD value with respect to KRAS) [1, 3]: AA (a compound having 20 or more is denoted as AA) | HRAS/KRAS (ratio of KD value with respect to GDP-bound HRAS wild-type protein to KD value with respect to KRAS) [2, 4]: A (a compound having 10 or more and less than 20 is denoted as A)

CCCN(C)C(=O)[C@@H]1CC(=O)N(C)[C@@H](COCC)C(=O)N[C@@H]([C@@H](C)CC)C(=O)N(C)CC(=O)N(C)[C@H]2C/C=C\CCN(C2=O)[C@@H](Cc2ccc(C(F)(F)F)cc2)C(=O)N(C)CC(=O)N[C@@H](CCc2cc(F)c(C(F)(F)F)c(F)c2)C(=O)N2C[C@H](OCC)C[C@H]2C(=O)NC2(CC(C)(C)C2)C(=O)N(C)[C@@H](C2CCCC2)C(=O)N1C [PP2031]
NRAS/KRAS (ratio of KD value for NRAS to KD value for KRAS) ([1]; KD ratio): B (a compound having 3 or more and less than 10 is denoted as B) | HRAS/KRAS (ratio of KD value for HRAS to KD value for KRAS) ([2]; KD ratio): B (a compound having 3 or more and less than 10 is denoted as B)

CCO[C@@H]1C[C@H]2C(=O)NC3(CC(F)(F)C3)C(=O)N(C)[C@@H](C3CCCC3)C(=O)N(C)[C@H](C3CCC3)CC(=O)N(C)[C@@H](CC3CC3)C(=O)N[C@@H]([C@@H](C)CC)C(=O)N(C)CC(=O)N(C)[C@H]3C/C=C\CCN(C3=O)[C@@H](Cc3ccc(C(F)(F)F)cc3)C(=O)N(C)CC(=O)N[C@@H](CCc3cc(F)c(C(F)(F)F)c(F)c3)C(=O)N2C1 [PP1639]
NRAS/KRAS (ratio of KD value for NRAS to KD value for KRAS) ([1]; KD ratio): A (a compound having 10 or more and less than 20 is denoted as A) | HRAS/KRAS (ratio of KD value for HRAS to KD value for KRAS) ([2]; KD ratio): A (a compound having 10 or more and less than 20 is denoted as A)

CCO[C@@H]1C[C@H]2C(=O)NC3(CCC3)C(=O)N(C)[C@@H](C3CCCC3)C(=O)N(C)[C@H](C(=O)N3CCOCC3)CC(=O)N(C)[C@@H](CC)C(=O)N[C@@H]([C@@H](C)CC)C(=O)N(C)CC(=O)N(C)[C@H]3CC(C)=CCN(C3=O)[C@@H](Cc3ccc(C(F)(F)F)cc3)C(=O)N(C)CC(=O)N[C@@H](CCc3cc(F)c(C(F)(F)F)c(F)c3)C(=O)N2C1 [PP1041]
NRAS/KRAS (ratio of KD value with respect to NRAS to KD value with respect to KRAS) ([1]; KD ratio): C (A compound having a KD ratio of 0.1 or more and less than 3 is denoted as C) | HRAS/KRAS (ratio of KD value with respect to HRAS to KD value with respect to KRAS) ([2]; KD ratio): C (A compound having a KD ratio of 0.1 or more and less than 3 is denoted as C)

CCO[C@@H]1C[C@H]2C(=O)NC3(CCC3)C(=O)N(C)[C@@H](C3CCCC3)C(=O)N(C)[C@H](C(=O)N(C)CCOC)CC(=O)N(C)[C@@H](CC3CC3)C(=O)N[C@@H]([C@@H](C)CC)C(=O)N(C)CC(=O)N(C)[C@H]3C/C=C\CCN(C3=O)[C@@H](Cc3ccc(C(F)(F)F)cc3)C(=O)N(C)CC(=O)N[C@@H](CCc3ccc4sccc4c3)C(=O)N2C1 [PP1328]
NRAS/KRAS (ratio of KD value for GDP-bound NRAS wild-type protein to KD value for KRAS) ([1]; KD ratio class): A (a compound having 10 or more and less than 20 is denoted as A) | HRAS/KRAS (ratio of KD value for GDP-bound HRAS wild-type protein to KD value for KRAS) ([2]; KD ratio class): A (a compound having 10 or more and less than 20 is denoted as A)

CCC[C@H]1C(=O)N[C@@H](C2CCOCC2)C(=O)N(C)CC(=O)N(C)[C@H]2C/C=C\CCN(C2=O)[C@@H](Cc2ccc(C(F)(F)F)cc2)C(=O)N(C)CC(=O)N[C@@H](CCc2ccc(C(F)(F)F)c(Cl)c2)C(=O)N2C[C@H](OCC)C[C@H]2C(=O)NC2(CC(C)(C)C2)C(=O)N(C)[C@@H](CC(C)(C)C)C(=O)N(C)[C@H](C(=O)N(C)C)CC(=O)N1C [PP3022]
NRAS/KRAS (ratio of KD value with respect to GDP-bound NRAS wild-type protein to KD value with respect to KRAS) [1, 3]: AA (a compound having 20 or more is denoted as AA) | HRAS/KRAS (ratio of KD value with respect to GDP-bound HRAS wild-type protein to KD value with respect to KRAS) [2, 4]: A (a compound having 10 or more and less than 20 is denoted as A)

CCOC[C@H]1C(=O)N[C@@H]([C@@H](C)CC)C(=O)N(C)CC(=O)N(C)[C@H]2C/C=C\CCN(C2=O)[C@@H](Cc2ccc(C(F)(F)F)cc2)C(=O)N(C)CC(=O)N[C@@H](CCc2cc(F)c(C(F)(F)F)c(F)c2)C(=O)N2C[C@@H](C)C[C@H]2C(=O)NC2(CC(C)(C)C2)C(=O)N(C)[C@@H](C2CCCC2)C(=O)N(C)[C@H](C(=O)N(C)CC)CC(=O)N1C [PP2042]
NRAS/KRAS (ratio of KD value with respect to NRAS to KD value with respect to KRAS) [1]: A (a compound having 10 or more and less than 20 is denoted as A) | HRAS/KRAS (ratio of KD value with respect to HRAS to KD value with respect to KRAS) [2]: A (a compound having 10 or more and less than 20 is denoted as A)

CCO[C@@H]1C[C@H]2C(=O)NC3(CC(C)(C)C3)C(=O)N(C)[C@@H](C(CC)CC)C(=O)N(C)[C@H](C(=O)N(C)C)CC(=O)N(C)[C@@H](CC)C(=O)N[C@@H]([C@@H](C)CC)C(=O)N(C)CC(=O)N(C)[C@H]3C/C=C\CCN(C3=O)[C@@H](Cc3ccc(C(F)(F)F)cc3)C(=O)N(C)CC(=O)N[C@@H](CCc3ccc(Cl)c(Cl)c3)C(=O)N2C1 [PP2179]
NRAS/KRAS (ratio of KD value with respect to NRAS to KD value with respect to KRAS) [1]: AA (a compound having 20 or more is denoted as AA) | HRAS/KRAS (ratio of KD value with respect to HRAS to KD value with respect to KRAS) [2]: A (a compound having 10 or more and less than 20 is denoted as A)

CCO[C@@H]1C[C@H]2C(=O)NC3(CCC3)C(=O)N(C)[C@@H](C3CCCC3)C(=O)N(C)[C@H](C(=O)N(C)C)CC(=O)N(C)[C@@H](COC)C(=O)N[C@@H]([C@@H](C)CC)C(=O)NCC(=O)N(C)[C@H]3CCCCCN(C3=O)[C@@H](Cc3ccc(C(F)(F)F)cc3)C(=O)N(C)CC(=O)N[C@@H](CCc3cc(F)c(C(F)(F)F)c(F)c3)C(=O)N2C1 [PP0859]
NRAS/KRAS (ratio of KD value with respect to NRAS to KD value with respect to KRAS) ([1]; KD ratio): B (a compound having 3 or more and less than 10 is denoted as B) | HRAS/KRAS (ratio of KD value with respect to HRAS to KD value with respect to KRAS) ([2]; KD ratio): B (a compound having 3 or more and less than 10 is denoted as B)

CCC[C@H]1C(=O)N[C@@H]([C@@H](C)CC)C(=O)N2C[C@@H](OC)C[C@H]2C(=O)N(C)[C@H]2C/C=C\CCN(C2=O)[C@@H](Cc2ccc(C)cc2)C(=O)N(C)CC(=O)N[C@@H](CCc2ccc(C(F)(F)F)c(OC)c2)C(=O)N2C[C@@H](C)C[C@H]2C(=O)NC2(CC(C)(C)C2)C(=O)N(C)[C@@H](C2CCCC2)C(=O)N(C)[C@H](C(=O)N(C)C)CC(=O)N1C [PP2388]
NRAS/KRAS (ratio of KD value with respect to NRAS to KD value with respect to KRAS) [1]: A (a compound having 10 or more and less than 20 is denoted as A) | HRAS/KRAS (ratio of KD value with respect to HRAS to KD value with respect to KRAS) [2]: B (a compound having 3 or more and less than 10 is denoted as B)
